Results on 18 compounds are retold here after patent publication US12459922B2 (Gilead Sciences, Inc., priority 2022, dated 2025).

This assay relates to endogenous cellular STAT1 (phosphorylated at Tyr701) in NCI-H1373 cells. The assay can be described thus: Phospho-STAT1 (Tyr701) LANCE Ultra TR-FRET Detection Assay. It counts as cell-based. The note with it: Homo sapiens, NCI-H1373, 48 h, phospho-STAT1 (Tyr701) induction, read-out: NH1373 pSTAT1 EC50. Here is the method:
Phospho-STAT1 (Tyr701 LANCE Ultra TR-FRET Detection Assay
d. LANCE Ultra phospho-STAT1 (Tyr701) kits are designed for the detection of phosphorylated STAT1 in cell lysates using a simple, homogeneous LANCE Ultra sandwich assay (Cat. #TRF4028M). This assay is intended for assessing compound induction of endogenous levels of cellular STAT1 (phosphorylated at Tyr701) in NCI-H1373 cells. The NCI-H1373 cells are cultured in RPMI 1640 media containing 10% heat inactivated FBS, GlutaMAX, 1% Penicillin-Streptomycin. An Echo acoustic liquid handler is used to transfer 60 nanoliters of compound dilutions using the Echo Qualified, 384-well polypropylene microplate clear flat bottom source plates into a Greiner (#781080) cell culture microplate. NCI-H1373 cells are seeded into these compound-spotted culture plates at 30,000 cells/well in a 60 uL volume in growth media. The plates are incubated in a 5% CO2 humidified incubator at 37° C. for 48 hours. […] After spinning the plate down at 300 rpm for 1 min, the plate is read on an EnVision plate reader set up for Eu3+ Cryptate and fluorescence emission is measured at two different wavelengths (665 nm and 620 nm). The HTRF ratio is then calculated […] for each well to determine the amount of pSTAT1 in the cell lysate, and the data is then normalized to 10 uM GS-1154611 positive and DMSO negative controls.
Background: Time-resolved FRET reads energy transfer from a long-lived donor to a nearby acceptor.
As for `CC[C@@H](CCCn1cnc2cc(-c3ccc(OC(F)F)cn3)c(F)cc2c1=O)Nc1cn[nH]c(=O)c1C(F)(F)F` [Example 340, (S)-7-(5-(difluoromethoxy)pyridin-2-yl)-6-fluoro-3-(4-((6-oxo-5-(trifluoromethyl)-1,6-dihydropyridazin-4-yl)amino)hexyl)quinazolin-4(3H)-one], the 50% effective concentration (EC50) (in general, the concentration that produces a half-maximal response) is 97.1 nM.

Turning to `Nc1nc(-c2cc3ccn(CC[C@H]4COC[C@@H]4Nc4cn[nH]c(=O)c4C(F)(F)F)c(=O)c3cc2F)ncc1C(F)(F)F` (racemic) [Example 441, (rac) 6-(4-amino-5-(trifluoromethyl)pyrimidin-2-yl)-7-fluoro-2-(2-((3R,4R)-4-((6-oxo-5-(trifluoromethyl)-1,6-dihydropyridazin-4-yl)amino)tetrahydrofuran-3-yl)ethyl)isoquinolin-1(2H)-one], the EC50 came to 388 nM.

In the case of `C[C@@H](CCCn1ccc2cc(-c3ncc(C4(F)COC4)c(N)n3)c(F)cc2c1=O)Nc1cn[nH]c(=O)c1C(F)(F)F` [Example 344, (S)-6-(4-amino-5-(3-fluorooxetan-3-yl)pyrimidin-2-yl)-7-fluoro-2-(4-((6-oxo-5-(trifluoromethyl)-1,6-dihydropyridazin-4-yl)amino)pentyl)isoquinolin-1(2H)-one], the EC50 came out at 28.2 nM.

As for `O=c1[nH]ncc(N[C@H](CCCn2ccc3nc(-c4ccc(C(F)(F)F)cn4)ccc3c2=O)COC(F)F)c1C(F)(F)F` [Example 386, (R)-6-(5-(difluoromethoxy)-4-((6-oxo-5-(trifluoromethyl)-1,6-dihydropyridazin-4-yl)amino)pentyl)-2-(5-(trifluoromethyl)pyridin-2-yl)-1,6-naphthyridin-5(6H)-one], the concentration for a half-maximal effect (EC50) turned out to be 2.96 nM.

With `[2H]C([2H])([2H])OC[C@@H](CCCn1ccc2cc(-c3ncc(C(F)(F)F)cn3)c(F)cc2c1=O)Nc1cn[nH]c(=O)c1C(F)(F)F` [Example 181, (R)-7-fluoro-2-(5-(methoxy-d3)-4-((6-oxo-5-(trifluoromethyl)-1,6-dihydropyridazin-4-yl)amino)pentyl)-6-(5-(trifluoromethyl)pyrimidin-2-yl)isoquinolin-1(2H)-one], the EC50 worked out at 14.2 nM.

On to `O=c1[nH]ncc(N[C@H]2CCC[C@@H]2CCn2cnc3cc(-c4ncc(Cl)cn4)c(F)cc3c2=O)c1C(F)(F)F` [Example 448, 7-(5-chloropyrimidin-2-yl)-6-fluoro-3-(2-((1R,2S)-2-((6-oxo-5-(trifluoromethyl)-1,6-dihydropyridazin-4-yl)amino)cyclopentyl)ethyl)quinazolin-4(3H)-one], for which the EC50 is 6.82 nM.

Consider `CC(C)c1cnc(-c2cc3ccn(CCC[C@H](C)Nc4cn[nH]c(=O)c4C(F)(F)F)c(=O)c3cc2F)nc1N` [Example 325, (S)-6-(4-amino-5-isopropylpyrimidin-2-yl)-7-fluoro-2-(4-((6-oxo-5-(trifluoromethyl)-1,6-dihydropyridazin-4-yl)amino)pentyl)isoquinolin-1(2H)-one], for which the concentration giving a half-maximal response (EC50) was 10.6 nM.

In the case of `O=c1[nH]ncc(N[C@H]2CCC[C@@H](Cn3ccc4cc(-c5ncc(C(F)(F)F)cn5)c(F)cc4c3=O)C2)c1C(F)(F)F` [Example 183, 7-fluoro-2-[[(1R,3S)-3-[[6-oxo-5-(trifluoromethyl)-1H-pyridazin-4-yl]amino]cyclohexyl]methyl]-6-[5-(trifluoromethyl)pyrimidin-2-yl]isoquinolin-1-one], the EC50 was determined as 6.39 nM.

On to `O=c1[nH]ncc(N2CCC[C@H]2CCCn2ccc3cc(-c4ncc(C(F)(F)F)cn4)c(F)cc3c2=O)c1C(F)(F)F` [Example 120, (S)-7-fluoro-2-(3-(1-(6-oxo-5-(trifluoromethyl)-1,6-dihydropyridazin-4-yl)pyrrolidin-2-yl)propyl)-6-(5-(trifluoromethyl)pyrimidin-2-yl)isoquinolin-1(2H)-one], for which the 50% effective concentration (EC50) was found to be 9.73 nM.

For the compound `C[C@@H](CCCn1ccc2cc(-c3ncc(N(C)C)cn3)c(F)cc2c1=O)Nc1cn[nH]c(=O)c1C(F)(F)F` [Example 92, (S)-6-(5-(dimethylamino)pyrimidin-2-yl)-7-fluoro-2-(4-((6-oxo-5-(trifluoromethyl)-1,6-dihydropyridazin-4-yl)amino)pentyl)isoquinolin-1(2H)-one], the EC50 came to 11.1 nM.

In the case of `Cc1ncc(-c2cc3ccn(C[C@@H]4CCC[C@H](Nc5cn[nH]c(=O)c5C(F)(F)F)C4)c(=O)c3cc2F)nc1N` [Example 262, 6-(6-amino-5-methylpyrazin-2-yl)-7-fluoro-2-(((1R,3S)-3-((6-oxo-5-(trifluoromethyl)-1,6-dihydropyridazin-4-yl)amino)cyclohexyl)methyl)isoquinolin-1(2H)-one], the EC50 is 193 nM.

On to `C[C@@H](CCCn1cnc2cc(-c3ccc(Cl)c(N)n3)c(F)cc2c1=O)Nc1cn[nH]c(=O)c1C(F)(F)F` [Example 294, (S)-7-(6-amino-5-chloropyridin-2-yl)-6-fluoro-3-(4-((6-oxo-5-(trifluoromethyl)-1,6-dihydropyridazin-4-yl)amino)pentyl)quinazolin-4(3H)-one], for which the EC50 turned out to be 28.8 nM.

For `C[C@@H](CCCn1ccc2cc(-c3nc(N)c4c(n3)COC4)c(F)cc2c1=O)Nc1cn[nH]c(=O)c1C(F)(F)F` [Example 357, (S)-6-(4-amino-5,7-dihydrofuro[3,4-d]pyrimidin-2-yl)-7-fluoro-2-(4-((6-oxo-5-(trifluoromethyl)-1,6-dihydropyridazin-4-yl)amino)pentyl)isoquinolin-1(2H)-one], the concentration giving a half-maximal response (EC50) was found to be 143 nM.

As to `C[C@@H]1C[C@@H](CCCn2ccc3cc(-c4ncc(C(F)(F)F)cn4)c(F)cc3c2=O)N(c2cn[nH]c(=O)c2C(F)(F)F)C1` [Example 174, 7-fluoro-2-(3-((2R,4R)-4-methyl-1-(6-oxo-5-(trifluoromethyl)-1,6-dihydropyridazin-4-yl)pyrrolidin-2-yl)propyl)-6-(5-(trifluoromethyl)pyrimidin-2-yl)isoquinolin-1(2H)-one], the EC50 came out at 287 nM.

Regarding `C[C@@H](CCCn1ccc2cc(-c3cc(F)c(N)cn3)c(F)cc2c1=O)Nc1cn[nH]c(=O)c1C(F)(F)F` [Example 96, (S)-6-(5-amino-4-fluoropyridin-2-yl)-7-fluoro-2-(4-((6-oxo-5-(trifluoromethyl)-1,6-dihydropyridazin-4-yl)amino)pentyl)isoquinolin-1(2H)-one], the EC50 was 558 nM.

With `C[C@@H](CCCn1ccc2cc(-c3nc(N)ccc3C#N)c(F)cc2c1=O)Nc1cn[nH]c(=O)c1C(F)(F)F` [Example 291, (S)-6-amino-2-(7-fluoro-1-oxo-2-(4-((6-oxo-5-(trifluoromethyl)-1,6-dihydropyridazin-4-yl)amino)pentyl)-1,2-dihydroisoquinolin-6-yl)nicotinonitrile], the EC50 was found to be 709 nM.

Turning to `Nc1nc(-c2cc3ncn(CCC[C@@H](Nc4cn[nH]c(=O)c4C(F)(F)F)C4CC4)c(=O)c3cc2F)ncc1OC(F)F` [Example 472, 7-[4-amino-5-(difluoromethoxy)pyrimidin-2-yl]-3-[(4R)-4-cyclopropyl-4-[[6-oxo-5-(trifluoromethyl)-1H-pyridazin-4-yl]amino]butyl]-6-fluoro-quinazolin-4-one], the EC50 was 51.6 nM.

As to `CC(C)(O)c1ccc(-c2cc3ccn(C[C@@H]4CCC[C@H](Nc5cn[nH]c(=O)c5C(F)(F)F)C4)c(=O)c3cc2F)nc1` [Example 283, 7-fluoro-6-(5-(2-hydroxypropan-2-yl)pyridin-2-yl)-2-(((1R,3S)-3-((6-oxo-5-(trifluoromethyl)-1,6-dihydropyridazin-4-yl)amino)cyclohexyl)methyl)isoquinolin-1(2H)-one], the concentration giving a half-maximal response (EC50) was 113 nM.
